From ChEMBL document CHEMBL1140113, “Structural requirements for drug inhibition of the liver specific human organic cation transport protein 1” (J Med Chem, 2008)

The compounds below were run against T1, OCT1 (SLC22A1) (Homo sapiens, UniProt O15245) (assay: in vitro). Conditions: HEK293 cells that express human OCT1, probe 4-(4-(dimethylamino)styryl)-N-methylpyridinium.
T1 sequence (O15245 whole entry): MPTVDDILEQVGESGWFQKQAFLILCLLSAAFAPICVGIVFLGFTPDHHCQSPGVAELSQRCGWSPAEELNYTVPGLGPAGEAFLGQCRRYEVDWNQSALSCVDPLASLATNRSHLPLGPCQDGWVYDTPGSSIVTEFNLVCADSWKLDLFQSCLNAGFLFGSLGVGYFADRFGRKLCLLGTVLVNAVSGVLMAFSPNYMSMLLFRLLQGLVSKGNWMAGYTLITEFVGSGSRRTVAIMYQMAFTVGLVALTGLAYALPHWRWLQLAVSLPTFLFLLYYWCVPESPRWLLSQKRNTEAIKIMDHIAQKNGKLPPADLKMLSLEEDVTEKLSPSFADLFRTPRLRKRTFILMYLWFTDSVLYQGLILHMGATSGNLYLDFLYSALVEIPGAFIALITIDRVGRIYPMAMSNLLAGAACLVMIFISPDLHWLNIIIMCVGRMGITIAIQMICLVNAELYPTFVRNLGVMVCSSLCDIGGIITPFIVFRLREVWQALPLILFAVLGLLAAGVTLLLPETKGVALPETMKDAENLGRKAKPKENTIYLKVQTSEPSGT

Row | SMILES | inhibition at 100 µM
1 | CN[C@H](CC(C)C)C(=O)N[C@H]1C(=O)N[C@@H](CC(N)=O)C(=O)N[C@H]2C(=O)N[C@H]3C(=O)N[C@H](C(=O)N[C@H](C(=O)O)c4cc(O)cc(O)c4-c4cc3ccc4O)[C@H](O)c3ccc(c(Cl)c3)Oc3cc2cc(c3O[C@@H]2O[C@H](CO)[C@@H](O)[C@H](O)[C@H]2O[C@H]2C[C@](C)(N)[C@H](O)[C@H](C)O2)Oc2ccc(cc2Cl)[C@H]1O [VANCOMYCIN] | 7.1%
2 | NCCS [CYSTEAMINE] | 2.4%
3 | Cc1cc(=O)n(-c2ccccc2)n1C [ANTIPYRINE] | 20.7%
4 | CCOc1nc2cccc(C(=O)O)c2n1Cc1ccc(-c2ccccc2-c2nnn[nH]2)cc1 | 6.3%
5 | N[C@@H](Cc1ccc(O)c(O)c1)C(=O)O [LEVODOPA] | 21.7%
6 | C[C@H]1O[C@H](O[C@H]2[C@H](O)[C@@H](O)[C@@H](O[C@H]3[C@H](O)[C@@H](O)C(O)O[C@@H]3CO)O[C@@H]2CO)[C@H](O)[C@@H](O)[C@@H]1N[C@H]1C=C(CO)[C@@H](O)[C@H](O)[C@H]1O (some centres undefined) [ACARBOSE] | 3.9%
7 | O=C1CC[C@@]2(O)[C@H]3Cc4ccc(O)c5c4[C@@]2(CCN3CC2CC2)[C@H]1O5 [NALTREXONE] | 40.3%
8 | CC(=O)N[C@H]1[C@H]([C@H](O)[C@H](O)CO)OC(C(=O)O)=C[C@@H]1N=C(N)N [ZANAMIVIR] | 2%
9 | CN(C)C(=O)Oc1cccc([N+](C)(C)C)c1 [NEOSTIGMINE BROMIDE] | 19.4%
10 | COc1ccc(Cl)cc1C(=O)NCCc1ccc(S(=O)(=O)NC(=O)NC2CCCCC2)cc1 [GLYBURIDE] | 0.3%
11 | Cc1cn([C@H]2C[C@H](N=[N+]=[N-])[C@@H](CO)O2)c(=O)[nH]c1=O [ZIDOVUDINE] | 4.7%
12 | CC1=C(C(=O)O)N2C(=O)[C@@H](NC(=O)[C@H](N)c3ccccc3)[C@H]2SC1 [CEPHALEXIN ANHYDROUS] | -1.9%
13 | CNC(=C[N+](=O)[O-])NCCSCc1ccc(CN(C)C)o1 [RANITIDINE] | 28.8%
14 | CN1[C@@H]2CC[C@H]1C[C@@H](OC(=O)C(CO)c1ccccc1)C2 (some centres undefined) [ATROPINE] | 76.5%
15 | CN1CCN2c3ccccc3Cc3ccccc3C2C1 (centres undefined) [MIANSERIN] | 48.4%
16 | Clc1ccccc1C(c1ccccc1)(c1ccccc1)n1ccnc1 [CLOTRIMAZOLE] | 69.3%
17 | Cc1ccccc1C(OCCN(C)C)c1ccccc1 (centres undefined) [ORPHENADRINE] | 77.6%
18 | CC(=O)Oc1ccccc1C(=O)O [ASPIRIN] | -5.7%
19 | CCN(CC)CC#CCOC(=O)C(O)(c1ccccc1)C1CCCCC1 (centres undefined) [OXYBUTYNIN] | 75.7%
20 | CCC[C@@H]1C[C@@H](C(=O)N[C@@H]([C@H]2O[C@H](SC)[C@H](O)[C@@H](O)[C@H]2O)[C@H](C)Cl)N(C)C1 [CLINDAMYCIN] | 19.5%
21 | Cc1ccc(-c2cc(C(F)(F)F)nn2-c2ccc(S(N)(=O)=O)cc2)cc1 [CELECOXIB] | 7.7%
22 | CC[C@]1(O)C[C@@H]2CN(CCc3c([nH]c4ccccc34)[C@@](C(=O)OC)(c3cc4c(cc3OC)N(C)[C@H]3[C@@](O)(C(=O)OC)[C@H](OC(C)=O)[C@]5(CC)C=CCN6CC[C@]43[C@@H]65)C2)C1 [VINBLASTINE] | 1.9%
23 | NS(=O)(=O)c1cc2c(cc1Cl)NCNS2(=O)=O [HYDROCHLOROTHIAZIDE] | -9.8%
24 | CC(C)C(=O)Nc1ccc([N+](=O)[O-])c(C(F)(F)F)c1 [FLUTAMIDE] | 34.1%
25 | CCCC(=O)Nc1ccc(OCC(O)CNC(C)C)c(C(C)=O)c1 (centres undefined) [ACEBUTOLOL] | 40.9%
26 | CCCN(CCC)S(=O)(=O)c1ccc(C(=O)O)cc1 [PROBENECID] | -8.9%

Row | SMILES | inhibition at 100 µM
27 | NCCCC(N)(C(=O)O)C(F)F (centres undefined) [EFLORNITHINE] | 5.5%
28 | CC(=O)N[C@@H](CS)C(=O)O [ACETYLCYSTEINE] | 15.5%
29 | Cc1cccc(CN2CCN(C(c3ccccc3)c3ccc(Cl)cc3)CC2)c1 (centres undefined) [MECLIZINE] | 16.4%
30 | CC(=O)[C@@]1(O)CC[C@H]2[C@@H]3C=C(Cl)C4=CC(=O)[C@@H]5C[C@@H]5[C@]4(C)[C@H]3CC[C@@]21C [CYPROTERONE] | 61.6%
31 | COCCc1ccc(OCC(O)CNC(C)C)cc1 (centres undefined) [METOPROLOL] | 32.4%
32 | CC(=O)N1CCN(c2ccc(OCC3COC(Cn4ccnc4)(c4ccc(Cl)cc4Cl)O3)cc2)CC1 (centres undefined) [KETOCONAZOLE] | 82.3%
33 | Nc1nc2ncc(CNc3ccc(C(=O)N[C@@H](CCC(=O)O)C(=O)O)cc3)nc2c(=O)[nH]1 [FOLIC ACID] | 33%
34 | COc1cc(C(O)CN)ccc1O (racemic) [NORMETANEPHRINE] | -2.4%
35 | Cn1c(=O)c2[nH]cnc2n(C)c1=O [THEOPHYLLINE] | -4.4%
36 | C[C@]12C=CC(=O)C=C1CC[C@@H]1[C@@H]2C(=O)C[C@@]2(C)[C@H]1CC[C@]2(O)C(=O)CO [PREDNISONE] | 23.3%
37 | N=C(N)NCCCCN [AGMATINE] | 2.1%
38 | Cc1c(C)c2c(c(C)c1O)CCC(C)(COc1ccc(CC3SC(=O)NC3=O)cc1)O2 (centres undefined) [TROGLITAZONE] | 48.2%
39 | CCN(CC)CCNC(=O)c1ccc(N)cc1 [PROCAINAMIDE] | 26.5%
40 | Nc1nc(O)c2ncn(COC(CO)CO)c2n1 [GANCICLOVIR] | 10.5%
41 | OC[C@@H](O)[C@@H](O)[C@H](O)[C@H](O)CO [MANNITOL] | -1.4%
42 | CC(C)(C)NC[C@H](O)COc1nsnc1N1CCOCC1 [TIMOLOL] | 39%
43 | O=C(O)COCCN1CCN(C(c2ccccc2)c2ccc(Cl)cc2)CC1 (centres undefined) [CETIRIZINE] | -4.8%
44 | O=C(O)Cc1ccccc1Nc1c(Cl)cccc1Cl [DICLOFENAC] | -3.7%
45 | COc1ccc(Cc2nccc3cc(OC)c(OC)cc23)cc1OC [PAPAVERINE] | 66.3%
46 | CCC1(c2ccccc2)C(=O)NC(=O)NC1=O [PHENOBARBITAL] | -6%
47 | COc1cc2c(c(OC)c1OC)-c1ccc(OC)c(=O)cc1[C@@H](NC(C)=O)CC2 [COLCHICINE] | 31.9%
48 | CCS(=O)(=O)CCn1c([N+](=O)[O-])cnc1C [TINIDAZOLE] | 14.2%
49 | COc1cc2nc(N3CCN(C(=O)C4COc5ccccc5O4)CC3)nc(N)c2cc1OC (centres undefined) [DOXAZOSIN] | 85.6%
50 | CC[C@H](C)C(=O)O[C@H]1C[C@H](O)C=C2C=C[C@H](C)[C@H](CC[C@@H](O)C[C@@H](O)CC(=O)O)[C@H]21 [PRAVASTATIN] | 5%
51 | C[C@H](CS)C(=O)N1CCC[C@H]1C(=O)O [CAPTOPRIL] | 0.3%
52 | CC(=O)Nc1ccc(O)cc1 [ACETAMINOPHEN] | -9.2%

Same assay, conditions: hek293

Row | SMILES | inhibition at 100 µM
53 | OC(CCN1CCCCC1)(c1ccccc1)C1CCCCC1 (centres undefined) [TRIHEXYPHENIDYL] | 79.4%
54 | O=P1(N(CCCl)CCCl)NCCCO1 (centres undefined) [CYCLOPHOSPHAMIDE ANHYDROUS] | 4.7%
55 | Cn1cnc([N+](=O)[O-])c1Sc1ncnc2nc[nH]c12 [AZATHIOPRINE] | 4.2%
56 | COc1cc(Cc2cnc(N)nc2N)cc(OC)c1OC [TRIMETHOPRIM] | 58.1%
57 | CC(C)N(CCC(C(N)=O)(c1ccccc1)c1ccccn1)C(C)C (centres undefined) [DISOPYRAMIDE] | 68.8%
58 | NCCc1ccc(O)c(O)c1 [DOPAMINE] | 11.8%
59 | NNc1nncc2ccccc12 [HYDRALAZINE] | 6.5%
